According to patent publication EP0945138A1, “Transfection particles” (Université Louis Pasteur de Strasbourg, priority 1997, dated 1999):
Each block holds one compound with its values, some of them ahead of it.

Experiments:
Type in all cases: physicochemical
[1] = tested on: calf thymus DNA; assay: UV spectroscopy of spermine or SC2 particles at raised NaCl concentration; settings: 76 µM DNA bases; for absorption at 330 nm as compared to the maximum optical density at 25 mM NaCl: 65 mM SC2
Protocol: The characterisation of the formed particles by UV spectroscopy was performed for different reasons. DNA in solution has a characteristic absorption spectrum between 240 and 310 nm. The absorption (optical density) has a maximum at 260 nm and 0 towards 310 nm. A change in DNA conformation should change the profile of the absorption spectrum. Moreover, the formation of particles results in an enhancement of the diffusion which can be perceived in UV by an enhancement of optical density.
Calf thymus DNA was complexed with spermine under conditions optimal for obtaining toroid structures as described by Naroditsky et al. (76 µM DNA bases, 65 mM spermine, 25 mM NaCl).

[2] = tested on: calf thymus DNA; assay: Determination of thiol functions of SC2 with Ellman's reagent during DNA complexation; settings: after 10 min, no oxygen except that in the water
[3] = tested on: pCMV-luc plasmid DNA; assay: Agarose gel electrophoresis: physical and chemical stability of the complexes; settings: 1% agarose gel, 40 mM Tris-acetate buffer pH 8
Protocol: In a series of experiments, the reversibility of complex formation as well as the stability of complexed DNA towards degradation were assessed by electrophoresis (Fig. 5). […] Yet the cationic lipid/DNA particles could be destroyed either with excess sodium dodecyl sulfate detergent (SDS, lane 3) or by converting the lipid back to the original C10 -CG+ detergent with excess reducing dithiothreitol (DTT, lane 4). Serum nucleases present in cell culture medium rapidly degrade supercoiled plasmid DNA (lanes 1 and 8) into a smear of fragments with many nicks (lane 5).
1% agarose gel electrophoresis (90 min at 8 V/cm in 40 mM Tris-acetate buffer pH 8) of 20 µl samples containing 0.4 µg (lanes 1-4) or 0.2 µg (lanes 5-8) pCMV-luc plasmid DNA. Complexes were made by addition of a 100-fold concentrated C10 -C^G+ detergent solution (90 µM final concentration) to a solution of plasmid (60 µM) in HEPES buffer (15 mM, pH 7.4). The solution was gently mixed once and left to oxydize for 24 h. Lane 1: 60 µM plasmid DNA. Lane 2: 60 µM oxydized (C10 -C^G+)2/DNA complexes. Lane 3: as lane 2 in 3 mM final sodium dodecylsulfate before loading. Lane 4: as lane 2 in 6 mM dithiothreitol before loading. Lane 5: 60 µM plasmid incubated for 1 h at 37 °C with an equivalent volume of DMEM cell culture medium containing 10% serum. Lane 6: 60p µ M oxydized (C10 -C^G+)2/DNA complexes incubated as lane 5. […]

[4] = tested on: pCMVluc plasmid DNA; assay: Oxidation rate of cysteine detergent into cystine lipid (free thiol, Ellman's reagent) with and without template DNA; settings: 90 µM detergent, TrisHCl 15 mM pH 8.4 saturated with oxygen, with 60 µM plasmid DNA versus without
Protocol: Oxidative detergent dimerization was expected to be prone to a template effect of DNA (Fig. 1). Fast intra-complex reaction is a key aspect to formation of small and stable particles since extensive detergent dimerization into lipid prior to DNA binding would bring the system back to a classical cationic lipid/DNA complex formation/aggregation process. Enhanced air oxidation rate was indeed observed in the presence of DNA (Fig. 3).
The stock buffer solution (TrisHCl 15 mM pH 8.4) was saturated with oxygen by three vacuum/oxygen atmosphere cycles. C10 -C^G+ was injected from a concentrated stock solution to a final concentration of 90 µM. For each time point, a 0.5 ml aliquot was removed and mixed with 0.5 ml 2XEllman's reagent. The remaining free thiol was quantitated spectrophotometrically according to Riddles et al. (1979 ). For the template experiment, pCMVluc plasmid DNA was added to a final concentration of 60 µM before addition of the detergent.

[5] = Determination of the critical micelle concentration (c.m.c.) with a Langmuir balance, without DNA; settings: for CMC / CMC without DNA: MES buffer 20 mM pH 6 containing 10 mM DTT; for c.m.c.: n-alkyl esters of cysteine by chain length, Langmuir balance, 20 mM MES buffer, pH 6
Protocol: Clean monomolecular DNA collapse is generally expected only for detergent concentrations below the critical micelle concentration (c.m.c.). Several n-alkyl esters of cysteine were synthesized by DMAP-catalyzed dicyclohexylcarbodiimide (DCC) dehydration and their c.m.c.'s were determined with a Langmuir balance (20 mM MES buffer, pH 6), providing the following results (n-alkyl chain length / c.m.c.): dodecane / 15 µM; undecane / 80 µM; decane / 320 µM; octane /> 2000 µM. Typical working plasmid concentrations for gene delivery experiments being in the 50 µM range, the decane chain is a safe choice. The weakly basic nature of the cysteine ester primary amine function (pKa= 6.8) is insufficient for simultaneous DNA binding (which requires a protonated detergent) and reasonable thiol oxidation rates in slightly basic medium. The amine function was therefore converted into a highly basic guanidine which is known to interact strongly with DNA (C10 -CG+, Fig. 2).
(§1) i) c.m.c. of a detergent with C8, C10, C11 and C12 cysteine Measurement of the c.m.c. was acomplished with a Langmuir balance in a MES buffer (20 mM pH 6) containing 10 mM DTT. When representing the surface tension as a logarithmic function of the detergent concentration a break at the c.m.c. was observed (Fig. 10). Applying this method c.m.c.'s of the compounds having different chain length (C8, C10, C11, C12) were determined.

[6] = tested on: calf thymus DNA; assay: Determination of the c.m.c. with a Langmuir balance, buffer containing DNA; settings: buffer containing calf thymus DNA at 30 µM bp
Protocol: as §1
ii) c.m.c. of C10 and C11 cysteine with and without DNA. In an analogous manner as above the c.m.c. value of C10 cysteine and C11 cysteine was determined, the buffer containing calf thymus DNA at a concentration of 30 µM bp (Fig. 11A, B).

absorption at 330 nm as compared to the maximum optical density at 25 mM NaCl ([1]; at 100 mM NaCl, raised one and a half hours after mixing): 81% | absorption at 330 nm as compared to the maximum optical density at 25 mM NaCl ([1]; at 150 mM NaCl): 71% | thiol groups oxydised [2]: 50%
SMILES: NC(CS)C(=O)NCCCNCCCCNCCCNC(=O)C(N)CS (stereo not drawn) [SC2, spermine-N1, N12-bis-cysteineamide]

DNA migration / stability during electrophoresis [3]: unable to retard DNA migration | oxydation rate into cystine lipid [4]: faster in the presence of template DNA
SMILES: CCCCCCCCCCNC(=O)C(CS)NC(=N)N (stereo not drawn) [C10 -CG+, Guanidyl-cysteine-decylamide]

CMC [5]: 80 µM | CMC without DNA [5]: 80 µM | c.m.c. [5]: 80 µM | CMC with DNA [6]: 32 µM
SMILES: CCCCCCCCCCCOC(=O)[C@@H](N)CS [C11]

CMC [5]: 15 µM | c.m.c. [5]: 15 µM
SMILES: CCCCCCCCCCCCOC(=O)[C@@H](N)CS [C12]

The next lines start with the compound.

SMILES: NCCCNCCCCNCCCN [spermine, reference compound]
observed UV spectrum after raising NaCl ([1]; NaCl raised to 100 mM, 65 mM spermine): identical with the spectrum of the DNA that had been observed before complexation with spermine

SMILES: CCCCCCCCOC(=O)[C@@H](N)CS [C8]
CMC [5]: > 2000 µM | c.m.c. [5]: > 2000 µM

SMILES: CCCCCCCCCCOC(=O)[C@@H](N)CS [C10]
CMC [5]: 320 µM | CMC without DNA [5]: 320 µM | c.m.c. [5]: 320 µM | CMC with DNA [6]: 50 µM
